Source: PubChem BioAssay (NCI)
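Assay format: 96-well plates, 48-hour exposure. TGI: total growth inhibition.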

Key:
Test in all cases: NCI anticancer screen, dose series, 48 h
786-0 renal = test system: 786-0 renal
SW-620 colon = test system: SW-620 colon
SNB-19 CNS = test system: SNB-19 CNS
UACC-257 melanoma = test system: UACC-257 melanoma
NCI-H460 lung = test system: NCI-H460 lung
KM20L2 colon = test system: KM20L2 colon
HL-60(TB) leukemia = test system: HL-60(TB) leukemia
ACHN renal = test system: ACHN renal
SK-MEL-5 melanoma = test system: SK-MEL-5 melanoma
OVCAR-4 ovarian = test system: OVCAR-4 ovarian
HCT-116 colon = test system: HCT-116 colon
MALME-3M melanoma = test system: MALME-3M melanoma
KM12 colon = test system: KM12 colon
LOX IMVI melanoma = test system: LOX IMVI melanoma
UACC-62 melanoma = test system: UACC-62 melanoma
NCI-H23 lung = test system: NCI-H23 lung
M19-MEL melanoma = test system: M19-MEL melanoma
RXF-631 renal = test system: RXF-631 renal
OVCAR-3 ovarian = test system: OVCAR-3 ovarian
TK-10 renal = test system: TK-10 renal
UO-31 renal = test system: UO-31 renal
SF-539 CNS = test system: SF-539 CNS
EKVX NSCLC = test system: EKVX NSCLC
NCI-H226 lung = test system: NCI-H226 lung
DLD-1 colon = test system: DLD-1 colon
SK-MEL-28 melanoma = test system: SK-MEL-28 melanoma
IGROV1 ovarian = test system: IGROV1 ovarian
SR leukemia = test system: SR leukemia
A549 NSCLC = test system: A549 NSCLC
LXFL 529 NSCLC = test system: LXFL 529 NSCLC
CAKI-1 renal = test system: CAKI-1 renal
SF-295 CNS = test system: SF-295 CNS
OVCAR-8 ovarian = test system: OVCAR-8 ovarian
A498 renal = test system: A498 renal
M14 melanoma = test system: M14 melanoma
DMS 273 small cell lung = test system: DMS 273 small cell lung
HOP-92 NSCLC = test system: HOP-92 NSCLC
HCT-15 colon = test system: HCT-15 colon
SK-MEL-2 melanoma = test system: SK-MEL-2 melanoma
XF 498 CNS = test system: XF 498 CNS
RXF 393 renal = test system: RXF 393 renal
HCC-2998 colon = test system: HCC-2998 colon
HOP-62 NSCLC = test system: HOP-62 NSCLC
DMS 114 small cell lung = test system: DMS 114 small cell lung
U251 CNS = test system: U251 CNS
COLO 205 colon = test system: COLO 205 colon
SF-268 CNS = test system: SF-268 CNS
CCRF-CEM leukemia = test system: CCRF-CEM leukemia
MOLT-4 leukemia = test system: MOLT-4 leukemia
HT29 colon = test system: HT29 colon
SNB-75 CNS = test system: SNB-75 CNS
HOP-18 NSCLC = test system: HOP-18 NSCLC
SN12C renal = test system: SN12C renal
OVCAR-5 ovarian = test system: OVCAR-5 ovarian
K-562 leukemia = test system: K-562 leukemia
SNB-78 CNS = test system: SNB-78 CNS
RPMI-8226 leukemia = test system: RPMI-8226 leukemia
NCI-H522 lung = test system: NCI-H522 lung
SK-OV-3 ovarian = test system: SK-OV-3 ovarian

Measured: TGI

O=C(c1ccco1)c1ccccc1C(=O)c1ccco1
not listed: RPMI-8226 leukemia | NCI-H522 lung | SK-OV-3 ovarian
> 100 µM: all other assays above

CN/C=C(/c1ccc(OC)cc1)C(O)c1ccc(OC)c(OC)c1 (centres undefined)
not listed: LXFL 529 NSCLC | CAKI-1 renal | SF-268 CNS | SNB-78 CNS
> 100 µM: all other assays above

Cc1cc2c(=O)cc(-c3ccc(C(F)(F)F)cc3)oc2c(C(=O)O)c1C
not listed: HL-60(TB) leukemia | SR leukemia | A498 renal | HOP-92 NSCLC | HCC-2998 colon | HOP-62 NSCLC
> 100 µM: all other assays above
